# Data reported in PMC5193068, “Application of Mice Humanized for CYP2D6 to the Study of Tamoxifen Metabolism and Drug–Drug Interaction with Antidepressants” (Drug Metabolism and Disposition, 2017).
# Several values for one entry are separate records, joined by “and”; a condition that tells them apart may be missing. Equal values may be shown once. Read-outs that look alike come from different tables or passages of the source.
# Key:
# [1] = Preliminary single oral dose of tamoxifen in hCYP2D6 mice, blood metabolite concentrations; format: in vivo; conditions: single 15-mg/kg oral dose of tamoxifen; for Cmax: hCYP2D6 (CYP2D6-humanized mouse line), mouse, blood, preliminary, data not shown
# [2] = design: method as in Chang et al., 2016; conditions: hPXR/hCAR/h3A4/3A7/2D6 mice, single dose of 20 mg/kg tamoxifen; ref Chang et al., 2016; cited from earlier work
# estrogen receptor (ER) = tested on: estrogen receptor (ER); design: method as in Johnson et al., 2004; conditions: ref Johnson et al., 2004; cited from earlier work
# [3] = Endoxifen formation from NDT in Cyp2dKO mouse liver microsomes; format: in vitro ADME; conditions: 5 µM NDT as substrate
# Method: (§1) All in vitro analyses were carried out in 100 mM potassium phosphate buffer, pH 7.4, containing 3.3 mM MgCl2, with agitation at 400 rpm at 37°C on a thermoshaker. All samples were handled in amber tubes under conditions of subdued light for the duration of the procedure. […] All subsequent assays were carried out under the same conditions, irrespective of the microsome source, with 5 µM N-desmethyltamoxifen (NDT) as substrate. […] Solvent (methanol) concentrations were 0.2% or lower in all incubations.
# CYP1A2 = assay: Correlation of NDT hydroxylation with P450 probe substrate metabolism in panel of 13 HLMs (1A2); format: in vitro ADME, human; conditions: 1A2, Phenacetin O-deethylation
# Method: as §1
# (§2) Spearman’s rank correlations and inhibition parameters of ADs were calculated using GraphPad Prism software (version 6; GraphPad Inc., La Jolla, CA).
# CYP2A6 = assay: Correlation of NDT hydroxylation with P450 probe substrate metabolism in panel of 13 HLMs (2A6); format: in vitro ADME, human; conditions: 2A6, Coumarin 7-hydroxylation
# Method: as §1, §2
# CYP2B6 = assay: Correlation of NDT hydroxylation with P450 probe substrate metabolism in panel of 13 HLMs (2B6); format: in vitro ADME, human; conditions: 2B6, S-mephenytoin N-demethylation
# Method: as §1, §2
# CYP2C8 = assay: Correlation of NDT hydroxylation with P450 probe substrate metabolism in panel of 13 HLMs (2C8); format: in vitro ADME, human; conditions: 2C8, Paclitaxel 6α-hydroxylation
# Method: as §1, §2
# CYP2C9 = assay: Correlation of NDT hydroxylation with P450 probe substrate metabolism in panel of 13 HLMs (2C9); format: in vitro ADME, human; conditions: 2C9, Diclofenac 4′-hydroxylation
# Method: (§3) All in vitro analyses were carried out in 100 mM potassium phosphate buffer, pH 7.4, containing 3.3 mM MgCl2, with agitation at 400 rpm at 37°C on a thermoshaker. All samples were handled in amber tubes under conditions of subdued light for the duration of the procedure. […] Assays to determine the apparent kinetic parameters of endoxifen formation in hCYP2D6 mouse liver microsomes (MLMs) were performed in triplicate under conditions of linearity for time (6 minutes) and hCYP2D6 protein (0.0625 mg/ml). All subsequent assays were carried out under the same conditions, irrespective of the microsome source, with 5 µM N-desmethyltamoxifen (NDT) as substrate. […] Solvent (methanol) concentrations were 0.2% or lower in all incubations.
# as §2
# CYP2C19 = assay: Correlation of NDT hydroxylation with P450 probe substrate metabolism in panel of 13 HLMs (2C19); format: in vitro ADME, human; conditions: 2C19, S-mephenytoin 4′-hydroxylation
# Method: as §3, §2
# CYP2E1 = assay: Correlation of NDT hydroxylation with P450 probe substrate metabolism in panel of 13 HLMs (2E1); format: in vitro ADME, human; conditions: 2E1, Chlorzoxazone 6-hydroxylation
# Method: as §3, §2
# CYP3A4 = assay: Correlation of NDT hydroxylation with P450 probe substrate metabolism in panel of 13 HLMs (3A4); format: in vitro ADME, human; conditions: 3A4, Testosterone 6β-hydroxylation
# Method: as §1, §2
# [4] = Preliminary tolerability of single doses of NDT in mice; format: in vivo; conditions: single doses of NDT required to achieve about 200 ng/ml, data not shown
# [5] = 2013, Jager et al., 2014, cited from earlier work
# CYP2D6 [6] = molecular target: T1, CYP2D6 (Homo sapiens, UniProt P10635); assay: Apparent kinetic parameters of endoxifen formation from NDT in hCYP2D6 mouse liver microsomes; format: in vitro ADME; design: Assays to determine the apparent kinetic parameters of endoxifen formation in hCYP2D6 mouse liver microsomes (MLMs) were performed in triplicate; tissue Taconic (animals); host or cells: liver microsomes pooled from four hCYP2D6 (CYP2D6-humanized, murine Cyp2d deleted) mice; conditions: hCYP2D6 MLMs 0.0625 mg/ml, 6 min, substrate inhibition model
# T1 sequence (P10635 whole entry): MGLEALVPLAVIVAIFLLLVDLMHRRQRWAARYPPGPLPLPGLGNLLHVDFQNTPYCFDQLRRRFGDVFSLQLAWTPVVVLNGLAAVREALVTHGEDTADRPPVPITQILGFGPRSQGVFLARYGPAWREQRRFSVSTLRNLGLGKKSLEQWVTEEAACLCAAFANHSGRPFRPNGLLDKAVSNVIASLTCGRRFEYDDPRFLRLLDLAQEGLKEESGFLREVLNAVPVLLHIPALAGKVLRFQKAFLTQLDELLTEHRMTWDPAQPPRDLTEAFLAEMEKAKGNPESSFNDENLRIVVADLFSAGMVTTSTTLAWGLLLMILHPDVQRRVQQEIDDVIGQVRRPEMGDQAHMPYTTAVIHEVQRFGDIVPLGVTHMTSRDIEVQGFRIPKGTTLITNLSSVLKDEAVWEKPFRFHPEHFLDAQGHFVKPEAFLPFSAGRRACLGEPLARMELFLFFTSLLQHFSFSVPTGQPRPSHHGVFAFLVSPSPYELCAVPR
# Method: as §3, §2
# CYP2D6 [7] = molecular target: T1, CYP2D6; assay: Correlation of NDT hydroxylation with P450 probe substrate metabolism in panel of 13 HLMs (2D6); format: in vitro ADME; design: Assays to determine the apparent kinetic parameters of endoxifen formation in hCYP2D6 mouse liver microsomes (MLMs) were performed in triplicate; tissue Taconic (animals); host or cells: liver microsomes pooled from four hCYP2D6 (CYP2D6-humanized, murine Cyp2d deleted) mice; conditions: 2D6, Bufuralol 1′-hydroxylation
# Method: as §3, §2
# CYP2D6 [8] = molecular target: T1, CYP2D6; design: Assays to determine the apparent kinetic parameters of endoxifen formation in hCYP2D6 mouse liver microsomes (MLMs) were performed in triplicate; tissue Taconic (animals); host or cells: liver microsomes pooled from four hCYP2D6 (CYP2D6-humanized, murine Cyp2d deleted) mice; method as in Desta et al. (2004); conditions: two individual HLM preparations; ref Desta et al. (2004); read-out: Km (endoxifen formation); cited from earlier work
# CYP2D6 [9] = molecular target: T1, CYP2D6; assay: biochemical
# Method: as §1, §2
# CYP2D6 [10] = molecular target: T1, CYP2D6; conditions: female, hCYP2D6 (mice humanized for CYP2D6), mouse, in vivo
# Method: All animal work was carried out on 8- to 12-week-old female mice. […] NDT was suspended in corn oil at 2 mg/ml for oral administration at 10 mg/kg (5 µl/g body weight). For sample collection for pharmacokinetic (PK) analysis, 10 µl whole blood was withdrawn from the tail vein at the indicated time points. Samples were immediately added to a tube containing heparin solution (10 µl, 15 IU/ml) and stored at −20°C until processing.
# In vivo PK samples were thawed by the addition of 70 µl acetonitrile containing the internal standard (tamoxifen-d5 at 0.2 µg/ml). After incubation on ice for 10 minutes, in vivo and in vitro samples were vortexed (5 seconds) and centrifuged for 10 minutes at 16,000g. The supernatant was added to 96-well plates for liquid chromatography (LC)–tandem mass spectrometry (MS/MS).
# Analysis of in vitro incubation and in vivo blood PK samples was carried out on a Waters Acquity ultra-performance LC system and a Micromass Quattro Premier mass spectrometer (both Micromass, Manchester, UK). […] Acquired data were analyzed in QuanLynx (Waters, Milford, MA) relative to analyte standard curves spanning the range of concentrations under study.
# Plasma levels of both of these compounds, and of endoxifen, were monitored over the following 48-hour period.
# E0771 cells = assay: Estradiol dependence of E0771 cell growth in vitro; format: cell-based, mouse; conditions: Supplemental Fig. 2
# [11] = design: method as in gsk-clinicalstudyregister.com study 29060/474; conditions: patients receiving 40 mg/d paroxetine; ref gsk-clinicalstudyregister.com study 29060/474; cited from earlier work
# murine plasma proteins = tested on: murine plasma proteins; design: method as in van Harten, 1993; Qin et al., 2016; conditions: mouse plasma; ref van Harten, 1993; Qin et al., 2016; cited from earlier work
# CYP2D6 [12] = molecular target: T1, CYP2D6; conditions: read-out: Ki for inhibition of dextromethorphan O-demethylation; HLMs; ref Bertelsen et al. (2003); cited from earlier work
compound,measurement,setting,value
"CC/C(=C(\c1ccc(O)cc1)c1ccc(OCCN(C)C)cc1)c1ccccc1 [4-HT, 4-hydroxytamoxifen]",Cmax,[1],235 ng/mL
same,blood concentration of 4-HT relative to NDT,[1],2.7 fold
same,4-HT levels relative to NDT,[2],5.4 fold
same,Cmax,[2],248 ng/mL
same,potency as estrogen receptor (ER) antagonist relative to the parent compound (tamoxifen),estrogen receptor (ER),up to 100 times
"CC/C(=C(\c1ccccc1)c1ccc(OCCNC)cc1)c1ccccc1 [NDT, N-desmethyltamoxifen]",endoxifen formation by Cyp2dKO liver microsomes,[3],did not produce detectable levels
same,SRCC with NDT Hydroxylation,CYP1A2,−0.289
same,SRCC with NDT Hydroxylation,CYP2A6,0.161
same,SRCC with NDT Hydroxylation,CYP2B6,0.572
same,SRCC with NDT Hydroxylation,CYP2C8,0.380
same,SRCC with NDT Hydroxylation,CYP2C9,0.526
same,SRCC with NDT Hydroxylation,CYP2C19,−0.220
same,SRCC with NDT Hydroxylation,CYP2E1,0.311
same,SRCC with NDT Hydroxylation,CYP3A4,−0.005
same,Cmax,[1],86 ng/mL
same,tolerability of single doses,[4],not well tolerated by all animals
same,Cmax,[2],46 ng/mL
same,mean steady-state concentration in patient serum,"[5]; patients on tamoxifen, ref Stearns et al., 2003, Madlensky et al., 2011, Lien et al.",approximately 200 ng/ml
same,average blood plasma steady-state Cmax,"[5]; patients receiving 20 mg tamoxifen per day, ref Lien et al.",approximately 200 ng/ml
same,"KS1 (apparent, endoxifen formation from NDT)",CYP2D6 [6],5.1 ± 0.4 µM
same,"KS2 (apparent, endoxifen formation from NDT)",CYP2D6 [6],3.9 ± 0.3 µM
same,SRCC with NDT Hydroxylation,CYP2D6 [7],0.698
same,Km,CYP2D6 [8],4.5 µM and 5.9 µM
CN(C)CCC=C1c2ccccc2CCc2ccccc21 [amitriptyline],Ki,CYP2D6 [9],720 nM
"CC/C(=C(\c1ccc(O)cc1)c1ccc(OCCNC)cc1)c1ccccc1 [endoxifen, 4-hydroxy-N-desmethyltamoxifen]",endoxifen levels in hCYP2D6 mice relative to human subjects,CYP2D6 [10],2.5-13 fold
same,potency as estrogen receptor (ER) antagonist relative to the parent compound (tamoxifen),estrogen receptor (ER),up to 100 times
C[C@]12CC[C@@H]3c4ccc(O)cc4CC[C@H]3[C@@H]1CC[C@@H]2O [estradiol],dependence of E0771 cell growth on estradiol,E0771 cells,no dependence whatsoever
Fc1ccc([C@@H]2CCNC[C@H]2COc2ccc3c(c2)OCO3)cc1 [paroxetine],steady-state Cmax,[11],approximately 150 ng/ml
same,binding with murine plasma proteins,murine plasma proteins,> 96%
same,Ki,CYP2D6 [12],360 nM
